In US20240156872A1, “Use of Chaperone-Mediated Autophagy Activators For Treating Or Preventing Blood Cancers And Myelodysplastic Syndromes And Enriching Hematopoietic Stem Cell Populations” (ALBERT EINSTEIN COLLEGE OF MEDICINE, priority 2021, published 2024):

How the values were obtained:
[1] = system: CMA in HSC from KFERQ-Dendra mice; assay: KFERQ-Dendra CMA reporter in HSC after in vivo activation; design: species or system mouse
Description: Mice. Hematopoietic system specific L2A KO mice were created by crossing C57BL/6 Vav-iCre mice with C57BL/6 L2Af/f mice. […] For the aging studies, 3-4 months (labeled as 4 m) and 25-30 m (labeled as >25 m) male mice were used in the young and old group, respectively. KFERQ-Dendra2 transgenic mice and KFERQ-Dendra mice defective in CMA (KFERQ-Dendra-L2AKO) were generated as described before. […] Young and old controls were similarly injected with tamoxifen. […] KFERQ-Dendra mice with extra copy of human L2A (KFERQ-Dendra-hL2AOE) were generated by breeding KFERQ-Dendra male mice with hL2AOE mice. […] Bone marrow was analyzed at the same times. Data is from the analysis 8 days post-injection, unless otherwise specified. For serial 5FU injections, mice were injected every week and 7 days post injection blood was taken and blood counts measured as above and dead mice and time of death were registered. […] The CMA activator (CA 20 mg/Kg b.w. per mouse day for 2 months) was administered orally in the form of sucralose gelatin agar pills.
Immunofluorescence staining. HSC or myeloid progenitor cells were directly sorted into 16-well slides pre-coated with Cell-Tak Cell Tissue Adhesive (Coming, 354240) and then fixed with 4% PFA for 15 min at room temperature (RT). For LAMP2A, LAMP1, total human LAMP2 and FADS2 staining, slides were washed with PBS and incubated with blocking buffer (5% goat serum/0.3% TrionX-100 in PBS) for 1 hour at RT and incubated ovemight at 4° C. with the first antibody diluted in 1% BSA/0.3% TritonX-100 followed by 40 min incubation at RT with fluorescence-conjugated secondary antibodies. Cells were washed 3 times with PBS and mounted with mounting medium with DAPI (Southern biotech). […] Oxidized proteins were detected with OxyICC Oxidized Protein Detection Kit from Sigma (S7350) and protein inclusions were detected with PROTEOSTAT Aggresome detection kit from ENZO (ENZ-51035) following manufacturer's instructions. […] For analysis of CMA activity using direct fluorescence and the KFERQ-Dendra CMA reporter, cells isolated from KFERQ-Dendra2 transgenic mice were fixed with 2% PFA for 5 min at RT and mounted for direct puncta counting or subjected for immunofluorescence as described above. Quantification was performed in TIFF converted images upon thresholding using the 3D object counter tool of Image J software (NIH). Average number of puncta per cell was determined for each of the cells in a field and at least 3 different fields per animal were counted. Where indicated, we also calculated the percentage of cells active for CMA, defined as those with at least two Dendra positive puncta. […] CMA flux was calculated as the increase in number of Dendra positive puncta upon leupeptin treatment. […]

[2] = system: Bead sorted CD34+ MNC from patients over 55 years of age; assay: FACS quantification of phenotypical HSC (HSPCs) in CD34+ MNC after 72 hours in HSC maintenance cultures; type: cell-based, human; conditions: for long-term HSCs (LT-HSC; CD90+, CD49f+, CD34+, CD38−, Lin-): short term ex vivo culture vs vehicle (FIG. 17)
Experimental: FIG. 15. Representative FACS data and gating strategy. Bead sorted CD34+ MNC from patients over 55 years of age were treated with compounds 77.1, 77.43, 77.36, B13, B19 or vehicle control for 72 hours in HSC maintenance cultures. The experimental readout is quantification of phenotypical HSC (HSPCs) by FACS analysis. […] Results also identified a positive trend in HSC number from a HC derived specimen.

Ctrl and L2AKO HSC = assay: Colony formation and serial re-plating assay with Ctrl and L2AKO HSC with supplemented media; type: cell-based, mouse
Description: Colony formation and serial re-plating assays. […] Colonies were scored after 10 to 12 days for mouse and 14 to 16 days for human cells using an Inverted Infinity and Phase Contrast Microscope (Fisher Scientific).

HSC from old (22 m) mice = conditions: daily injections of GLA (1mg/kg bw) for 7 weeks vs saline
Experimental: Mice. […] For the aging studies, 3-4 months (labeled as 4 m) and 25-30 m (labeled as >25 m) male mice were used in the young and old group, respectively. […] For GLA supplementation, old mice (>25 m) were injected with either saline or GLA (1mg/kg bw) for 40 days.
Colony formation and serial re-plating assays. Sorted mouse HSC (180 cells Lin−/cKit+/Scal+/CD48−/CD150+) or CD34-enriched human HSPC (5,000 cells) were plated into methylcellulose media ([sequence] Technologies, MethoCult M 3434 for mouse or MethoCult H4434 for human) according to the manufacturer's protocols. Colonies were scored after 10 to 12 days for mouse and 14 to 16 days for human cells using an Inverted Infinity and Phase Contrast Microscope (Fisher Scientific). […] Where indicated, media was supplemented with 100 nM FADS2 inhibitor SC-26196 (Sigma, PZ0176), 100 μM γ-linolenic fatty acid (GLA) (Sigma, L2378), 100 μtM NAC (Sigma, A7250) or 5 mM Methyl-pyruvate (Sigma, 371173).

[3] = system: human CD34+ cells from old (>65 year) multi-myeloma patients; conditions: CD34+ cells from old (>65 years) patients, ex vivo GLA
Description: Human hematopoietic stem and progenitor cells. Mobilized peripheral blood from multiple myeloma patients (59-71 years old) was enriched for mononuclear cells by density gradient centrifugation using Ficoll-Paque PLUS (GE Healthcare). Mono-nuclear cells were further enriched for CD34+ cells using immunomagnetic bead sorting (CD34 MicroBead Kit, human; Miltenyi Biotec) according to the manufacturer's protocol. The isolated CD34+cells were then used for LTC-IC or colony formation assays. LTC-IC assay. To assess LTC-IC frequencies, serial dilutions of FACS-sorted mouse Lin-Sca-l+c-Kit+ (LSK) cells or CD34+enriched human HSPCs were plated in MyeloCult [MUT] for mouse or MyeloCult [MUT] for human ([sequence] Technologies) mixed at 50:50 ratio with primary mouse stroma cell-conditioned medium or with HS5-conditioned medium for human cells. For each cell dose (1:10, 1:20, 1:40, 1:80, 1:160 for mouse LSK cells, 1:50, 1:100, 1:200, 1:400, 1:800 for human HSPC), 10 technical replicates were performed. […] For CFU-C counting, in the case of mouse samples, wells containing any type of colonies were scored as positive, while in the case of human samples, only wells with GEMM colonies were scored as positive. […]

O=c1[nH]cc(F)c(=O)[nH]1 [5FU, 5-fluorouracil]
time of CMA returning to basal levels in HSC ([1]; after 5FU injection): 16 days
time of maximal CMA upregulation in HSC ([1]; after 5FU injection): 8 days
CMA activity in HSC (Dendra puncta per cell) ([1]; after single injection of 5FU): further upregulate CMA

CC(=O)Nc1ccc(-c2cnc3cc(Cl)ccc3n2)cc1 [CA77.1, N-(4-(6-chloroquinoxalin-2-yl)phenyl)acetamide]
number of phenotypical HSCs by FACS ([2]; AML patient derived specimen, 72 hours vs vehicle): detectable and significant increase in HSCs
long-term HSCs (LT-HSC; CD90+, CD49f+, CD34+, CD38−, Lin-) [2]: significantly more long-term HSCs (LT-HSC) than vehicle

Clc1ccc2nc(-c3ccc(Nc4cnccn4)cc3)cnc2c1 [CA77.36, N-(4-(6-chloroquinoxalin-2-yl)phenyl)pyrazin-2-amine]
long-term HSCs (LT-HSC; CD90+, CD49f+, CD34+, CD38−, Lin-) [2]: significantly more long-term HSCs (LT-HSC) than vehicle

Cc1nnc(-c2ccc(-c3cnc4cc(Cl)ccc4n3)cc2)[nH]1 [CA77.43, 6-chloro-2-(4-(5-methyl-4H-1,2,4-triazol-3-yl)phenyl)quinoxaline]
long-term HSCs (LT-HSC; CD90+, CD49f+, CD34+, CD38−, Lin-) [2]: significantly more long-term HSCs (LT-HSC) than vehicle

CCCCC/C=C\C/C=C\C/C=C\CCCCC(=O)O [GLA, γ-linolenic acid]
self-renewal capacity of CMA-defective (L2AKO) HSC (colony numbers) (Ctrl and L2AKO HSC; L2AKO HSC, GLA supplemented media, ex vivo): restored their self-renewal capacity ex vivo
HSC function by colony formation (HSC from old (22 m) mice): improved HSC function as assessed by colony formation
number of functional human stem cells in long-term cultures (LTC-IC) [3]: increased the number of functional human stem cells in long-term cultures

CC(=O)N[C@@H](CS)C(=O)O [NAC, N-acetylcysteine]
long-term colony initiation abilities of L2AKO HSC (total colony numbers in 3rd plating) (Ctrl and L2AKO HSC; L2AKO HSC, NAC from the 1st plating): restored their ex vivo long-term colony initiation abilities

N#CC(CCCN1CCN(/N=C/c2cccnc2)CC1)(c1ccccc1)c1ccccc1 [SC-26196]
self-renewal ability of control HSC (colony numbers) (Ctrl and L2AKO HSC; control cells, 100 nM FADS2 inhibitor SC-26196, first plating): sufficient to reduce self-renewal ability of control cells

polyI:C
CMA activity in HSC (Dendra puncta per cell) ([1]; 48 hours after injection of PolyI:C vs vehicle): upregulated CMA
